Experiment: Single dose oral PK study in male Sprague Dawley rats (plasma by LC-MS/MS)
Assay type: in vivo
Details: mean; for Plasma concentration of PRX-002 (−) Isomer: PRX-002 (−) Isomer oral 5 mg/kg b.w.
Procedure, shortened: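 Fasted adult male Sprague Dawley rats (8-10 weeks) got a single oral dose of prodrug, as Tween 80/0.5% CMC suspension, equivalent to 5 mg/kg PRX-002 (up to 10 or 15 mg/kg in some studies). Retro-orbital K2EDTA blood was sampled over 24 h. Plasma fencamfamine was measured by LC-MS/MS.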

CCN[C@@H]1[C@@H]2CC[C@@H](C2)[C@H]1c1ccccc1 [PRX-002 (−) Isomer, (1R,2R,3S,4S)—N-Ethyl-3-phenylbicyclo[2.2.1]heptan-2-amine, reference compound]
Plasma concentration of PRX-002 (−) Isomer (0.00 h): 0.00 | Plasma concentration of PRX-002 (−) Isomer (0.08 h): 0.00 | Plasma concentration of PRX-002 (−) Isomer (0.25 h): 50.20 | Plasma concentration of PRX-002 (−) Isomer (0.50 h): 159.35 | Plasma concentration of PRX-002 (−) Isomer (1.00 h): 170.35 | Plasma concentration of PRX-002 (−) Isomer (2.00 h): 101.07 | Plasma concentration of PRX-002 (−) Isomer (4.00 h): 21.30 | Plasma concentration of PRX-002 (−) Isomer (6.00 h): 0.00 | Plasma concentration of PRX-002 (−) Isomer (24.00 h): 0.00 | AUC% extrap of PRX-002 (−) Isomer (PRX-002 (−) Isomer oral 5 mg/kg): 12.904 ± 1.8410% | AUC(0-inf) (male, Sprague Dawley, rat, in vivo, po, 5 mg/kg, PRX-002 (−) Isomer oral 5 mg/kg, read-out: AUCinf of PRX-002 (−) Isomer): 427 ± 122 ng·h/mL | AUC(0-t) (male, Sprague Dawley, rat, in vivo, po, 5 mg/kg, PRX-002 (−) Isomer oral 5 mg/kg, read-out: AUClast of PRX-002 (−) Isomer): 371 ± 99.5 ng·h/mL | Cmax (male, Sprague Dawley, rat, in vivo, po, 5 mg/kg, PRX-002 (−) Isomer oral 5 mg/kg, read-out: Cmax of PRX-002 (−) Isomer): 176 ± 47.5 ng/mL | MRT last (male, Sprague Dawley, rat, in vivo, po, 5 mg/kg, PRX-002 (−) Isomer oral 5 mg/kg, read-out: MRTlast of PRX-002 (−) Isomer): 1.47 ± 0.104 h | half-life (male, Sprague Dawley, rat, in vivo, po, 5 mg/kg, PRX-002 (−) Isomer oral 5 mg/kg, read-out: T1/2 of PRX-002 (−) Isomer (converted)): 1.86 ± 0.132 h | Tmax (male, Sprague Dawley, rat, in vivo, PRX-002 (−) Isomer oral 5 mg/kg, read-out: Tmax of PRX-002 (−) Isomer): 0.833 ± 0.289 h

From patent US10662146B2, “Prodrugs of fencamfamine” (Praxis Bioresearch, LLC, priority 2015, dated 2020)
